Each structure is given as a SMILES string.

IC50 data for 41 molecules are collected here from patent US11352339B2 (MISSION THERAPEUTICS LIMITED, priority 2016, dated 2022).

The assay deals with USP30 (Homo sapiens (Human), UniProt Q70CQ3). As to the kind of experiment: USP30 Biochemical IC50 Assay. As to conditions: fluorescence polarisation, TAMRA labelled peptide linked to ubiquitin; 30 min pre-incubation, read after 2 h; read-out: IC50 range. The method in brief: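 Fluorescence polarisation cleavage assay, duplicate wells: substrate is a TAMRA peptide joined to ubiquitin by an iso-peptide bond (50 nM), added after 30 min room-temperature compound–enzyme incubation. Readings at 540/590 nm immediately and at 2 h.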
Sequence of USP30 (Q70CQ3 57-517): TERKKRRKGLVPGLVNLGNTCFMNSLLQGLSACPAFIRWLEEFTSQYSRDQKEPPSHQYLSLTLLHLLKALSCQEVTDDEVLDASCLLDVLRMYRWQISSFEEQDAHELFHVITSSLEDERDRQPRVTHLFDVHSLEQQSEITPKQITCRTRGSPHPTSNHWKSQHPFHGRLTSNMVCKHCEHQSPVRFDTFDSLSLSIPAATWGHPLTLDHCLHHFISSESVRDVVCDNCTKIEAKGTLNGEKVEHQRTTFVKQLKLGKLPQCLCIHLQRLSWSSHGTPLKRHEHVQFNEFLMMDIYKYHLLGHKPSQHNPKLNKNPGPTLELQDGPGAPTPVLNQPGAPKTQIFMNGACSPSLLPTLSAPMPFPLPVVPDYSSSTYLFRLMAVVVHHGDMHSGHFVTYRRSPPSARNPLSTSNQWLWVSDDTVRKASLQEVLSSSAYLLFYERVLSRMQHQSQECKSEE
(In fluorescence polarisation assays a small probe gives low polarisation when free and higher when bound to something large.)
By IC50 is commonly meant the concentration needed to halve the response being measured. Consider `N#Cc1cnn(-c2cncc(-c3nc([C@@H]4CCCN4C#N)no3)n2)c1` [Example 202, (S)-1-(6-(3-(1-Cyanopyrrolidin-2-yl)-1,2,4-oxadiazol-5-yl)pyrazin-2-yl)-1H-pyrazole-4-carbonitrile], for which the IC50 is 0.1 to 1 µM.

As for `N#CN1CCC(c2cc(NC(=O)c3ccccc3)n[nH]2)C1` (centres unmarked) [Example 50, N-(3-(1-Cyanopyrrolidin-3-yl)-1H-pyrazol-5-yl)benzamide], the IC50 fell in the range of 0.1 to 1 µM. For `N#CN1CCCC1c1noc(-c2cccc(-c3ccc(C(N)=O)cc3)c2)n1` (centres unmarked) [Example 149, 3′-(3-(1-Cyanopyrrolidin-2-yl)-1,2,4-oxadiazol-5-yl)-[1,1′-biphenyl]-4-carboxamide], the IC50 is 1 to 10 µM. The result for `Cc1ccc(F)c(-c2ccc3nc(C4CCN(C#N)C4)[nH]c3c2)c1` (centres unmarked) [Example 76, 3-(6-(2-Fluoro-5-methylphenyl)-1H-benzo[d]imidazol-2-yl)pyrrolidine-1-carbonitrile] reads less than 0.1 µM; that for `N#CN1CCC(c2nc3cc(-c4ccc5[nH]ncc5c4)cnc3[nH]2)C1` (centres unmarked) [Example 87, 3-(6-(1H-Indazol-5-yl)-3H-imidazo[4,5-b]pyridin-2-yl)pyrrolidine-1-carbonitrile], 0.1 to 1 µM. `N#CN1CCCC1c1noc(-c2cccc(-c3ccoc3)c2)n1` (centres unmarked) [Example 160, 2-(5-(3-(Furan-3-yl)phenyl)-1,2,4-oxadiazol-3-yl)pyrrolidine-1-carbonitrile]: the IC50 fell in the range of 0.1 to 1 µM. The result for `C[C@@H]1CN(C#N)C[C@H]1c1cc(-c2cccc(-c3ccccc3)c2)n[nH]1` (relative stereo) [Example 19, Trans-3-(3-([1,1′-biphenyl]-3-yl)-1H-pyrazol-5-yl)-4-methylpyrrolidine-1-carbonitrile] reads 0.1 to 1 µM; that for `N#CN1CCCC1c1nnc(-c2cccc(-c3ccccc3)c2)o1` (centres unmarked) [Example 140, 2-(5-([1,1′-Biphenyl]-3-yl)-1,3,4-oxadiazol-2-yl)pyrrolidine-1-carbonitrile], 1 to 10 µM. For the molecule `COc1cc(-c2nc(C3CCN(C#N)C3)no2)nc2ccccc12` (centres unmarked) [Example 58, 3-(5-(4-Methoxyquinolin-2-yl)-1,2,4-oxadiazol-3-yl)pyrrolidine-1-carbonitrile], the 50% inhibitory concentration (IC50) is 1 to 10 µM. In the case of `N#Cc1ccc(-c2cc(C3CCN(C#N)C3)[nH]n2)cc1` (centres unmarked) [Example 2, 3-(3-(4-Cyanophenyl)-1H-pyrazol-5-yl)pyrrolidine-1-carbonitrile] it was 1 to 10 µM; in that of `Cc1nc2nc(C3CCN(C#N)C3)[nH]c2cc1-c1ccccc1` (centres unmarked) [Example 99, 3-(5-Methyl-6-phenyl-3H-imidazo[4,5-b]pyridin-2-yl)pyrrolidine-1-carbonitrile], 0.1 to 1 µM; in that of `CNC(=O)c1cc(-c2ccccc2)cc2oc([C@@H]3CCCN3C#N)nc12` [Example 122, (S)-2-(1-Cyanopyrrolidin-2-yl)-N-methyl-6-phenylbenzo[d]oxazole-4-carboxamide], 10 to 100 µM. In the case of `Cc1ccc(-c2cccc(-c3nc(C4CCCN4C#N)no3)c2)cn1` (centres unmarked) [Example 154, 2-(5-(3-(6-Methylpyridin-3-yl)phenyl)-1,2,4-oxadiazol-3-yl)pyrrolidine-1-carbonitrile] it was 0.1 to 1 µM; in that of `N#CN1CCC(c2cc(-c3cccc(-c4cccnc4)c3)n[nH]2)C1` (centres unmarked) [Example 26, 3-(3-(3-(Pyridin-3-yl)phenyl)-1H-pyrazol-5-yl)pyrrolidine-1-carbonitrile], 0.1 to 1 µM; in that of `CNC(=O)c1cccc(-c2cc(-c3nc(C4CCCN4C#N)no3)ccn2)c1` (centres unmarked) [Example 171, 3-(4-(3-(1-Cyanopyrrolidin-2-yl)-1,2,4-oxadiazol-5-yl)pyridin-2-yl)-N-methylbenzamide], 1 to 10 µM. With `N#CN1CCC[C@H]1c1nc2ccc(-c3ccccc3)cc2[nH]1` [Example 94, (S)-2-(6-Phenyl-1H-benzo[d]imidazol-2-yl)pyrrolidine-1-carbonitrile], the IC50 was 1 to 10 µM. The result for `N#CN1CCC(c2cc(-c3ccc(C(N)=O)cc3)n[nH]2)C1` (centres unmarked) [Example 4, 4-(5-(1-Cyanopyrrolidin-3-yl)-1H-pyrazol-3-yl)benzamide] reads 1 to 10 µM; that for `N#CN1CCC(c2nc3ccc(-c4ccccc4OCc4ccccc4)cc3[nH]2)C1` (centres unmarked) [Example 73, 3-(6-(2-(Benzyloxy)phenyl)-1H-benzo[d]imidazol-2-yl)pyrrolidine-1-carbonitrile], 0.1 to 1 µM.

For `COc1ccc(C#N)cc1-c1cccc(-c2nc(C3CCCN3C#N)no2)c1` (centres unmarked) [Example 146, 2-(5-(5′-Cyano-2′-methoxy-[1,1′-biphenyl]-3-yl)-1,2,4-oxadiazol-3-yl)pyrrolidine-1-carbonitrile], the IC50 was in the range of 0.1 to 1 µM. The result for `N#CN1CCC(c2nnc(-c3ccc4nccn4c3)[nH]2)C1` (centres unmarked) [Example 108, 3-(5-(Imidazo[1,2-a]pyridin-6-yl)-4H-1,2,4-triazol-3-yl)pyrrolidine-1-carbonitrile] reads 1 to 10 µM; that for `N#CN1CCC(c2cc(-c3cccc(N4CCCCC4)c3)n[nH]2)C1` (centres unmarked) [Example 12, 3-(3-(3-(Piperidin-1-yl)phenyl)-1H-pyrazol-5-yl)pyrrolidine-1-carbonitrile], 0.1 to 1 µM. The result for `COc1ncccc1-c1cccc(-c2nc(C3CCCN3C#N)no2)c1` (centres unmarked) [Example 162, 2-(5-(3-(2-Methoxypyridin-3-yl)phenyl)-1,2,4-oxadiazol-3-yl)pyrrolidine-1-carbonitrile] reads 0.1 to 1 µM.

For `N#CN1CCC(c2nc3cc(-c4ccncc4)cnc3[nH]2)C1` (single isomer, unassigned) [Example 81, 3-(6-(Pyridin-4-yl)-3H-imidazo[4,5-b]pyridin-2-yl)pyrrolidine-1-carbonitrile], the IC50 was in the range of 0.1 to 1 µM.

As for `N#CN1CCCC1c1noc(-c2cccc(-c3cncnc3)c2)n1` (centres unmarked) [Example 159, 2-(5-(3-(Pyrimidin-5-yl)phenyl)-1,2,4-oxadiazol-3-yl)pyrrolidine-1-carbonitrile], the IC50 is 1 to 10 µM. Take `N#Cc1ccc(C2CN(c3noc(C4CCN(C#N)C4)n3)C2)cc1` (centres unmarked) [Example 198, 3-(3-(3-(4-Cyanophenyl)azetidin-1-yl)-1,2,4-oxadiazol-5-yl)pyrrolidine-1-carbonitrile]: the IC50 was in the range of 0.1 to 1 µM. In the case of `COc1ccc(-c2cccc(-c3cc(C4CCN(C#N)C4)[nH]n3)c2)cc1` (centres unmarked) [Example 30, 3-(3-(4′-Methoxy-[1,1′-biphenyl]-3-yl)-1H-pyrazol-5-yl)pyrrolidine-1-carbonitrile] it was 0.1 to 1 µM; in that of `N#Cc1cc(F)cc(-c2ccc3oc([C@@H]4CCCN4C#N)nc3c2)c1` [Example 138, (S)-2-(5-(3-Cyano-5-fluorophenyl)-benzo[d]oxazol-2-yl)pyrrolidine-1-carbonitrile], 0.1 to 1 µM; in that of `N#Cc1cccc(-c2ccc3nc(C4CCN(C#N)C4)[nH]c3c2)c1` (centres unmarked) [Example 72, 3-(6-(3-Cyanophenyl)-1H-benzo[d]imidazol-2-yl)pyrrolidine-1-carbonitrile], 0.1 to 1 µM. In the case of `N#CN1CCC(c2nc3ccc(-c4ccc(C(N)=O)cc4)cc3[nH]2)C1` (centres unmarked) [Example 74, 4-(2-(1-Cyanopyrrolidin-3-yl)-1H-benzo[d]imidazol-6-yl)benzamide] it was 0.1 to 1 µM. For the molecule `N#CN1CCC(c2cc(-c3ccc(-c4ccccc4)nc3)n[nH]2)C1` (centres unmarked) [Example 40], the IC50 was in the range of 0.1 to 1 µM. In the case of `N#CN1CCCC1c1noc(-c2cccc(-c3cccnc3)c2)n1` (centres unmarked) [Example 152, 2-(5-(3-(Pyridin-3-yl)phenyl)-1,2,4-oxadiazol-3-yl)pyrrolidine-1-carbonitrile], the half-inhibitory concentration (IC50) lay in the range of 0.1 to 1 µM. For the molecule `N#CN1CCC(c2cnc3cc(-c4ccccc4)ccn23)C1` (centres unmarked) [Example 124, 3-(7-Phenylimidazo[1,2-a]pyridin-3-yl)pyrrolidine-1-carbonitrile], the IC50 was 0.1 to 1 µM. In the case of `Cc1noc(C)c1-c1ccn2c(C3CCN(C#N)C3)cnc2c1` (centres unmarked) [Example 125, 3-(7-(3,5-Dimethylisoxazol-4-yl)imidazo[1,2-a]pyridin-3-yl)pyrrolidine-1-carbonitrile] it was 1 to 10 µM; in that of `CNC(=O)c1cccc(-c2cnc3[nH]c(C4CCN(C#N)C4)nc3c2)c1` (centres unmarked) [Example 89, 3-(2-(1-Cyanopyrrolidin-3-yl)-3H-imidazo[4,5-b]pyridin-6-yl)-N-methylbenzamide], 1 to 10 µM. As to `N#CN1C[C@@H](c2cc(-c3cccc(-c4ccccc4)c3)n[nH]2)[C@H](C2CC2)C1` (relative stereo) [Example 46, Trans-3-(3-([1,1′-biphenyl]-3-yl)-1H-pyrazol-5-yl)-4-cyclopropylpyrrolidine-1-carbonitrile], the IC50 was in the range of 0.1 to 1 µM. On to `N#CN1CCC(c2nc3cc(-c4ccncc4)cnc3[nH]2)C1` (single isomer, unassigned) [Example 82, 3-(6-(Pyridin-4-yl)-3H-imidazo[4,5-b]pyridin-2-yl)pyrrolidine-1-carbonitrile], for which the half-inhibitory concentration (IC50) lay in the range of 1 to 10 µM.

Consider `Cn1nccc1-c1cccc(-c2nc(C3CCCN3C#N)no2)c1` (centres unmarked) [Example 143, 2-(5-(3-(1-Methyl-1H-pyrazol-5-yl)phenyl)-1,2,4-oxadiazol-3-yl)pyrrolidine-1-carbonitrile], for which the IC50 was 1 to 10 µM. In the case of `CO[C@@H]1CCN(c2ccc(-c3nc(C4CCN(C#N)C4)no3)cc2)C1` (stereo partly drawn) [Example 62, 3-(5-(4-((R)-3-Methoxypyrrolidin-1-yl)phenyl)-1,2,4-oxadiazol-3-yl)pyrrolidine-1-carbonitrile] it was 1 to 10 µM; in that of `C[C@H]1CN(C#N)C[C@@H]1c1nc2cc(-c3ccccc3)cnc2[nH]1` (single isomer, unassigned) [Example 102, Trans-3-methyl-4-(6-phenyl-3H-imidazo[4,5-b]pyridin-2-yl)pyrrolidine-1-carbonitrile], 0.1 to 1 µM; in that of `N#Cc1cc(-c2cc(-c3nc([C@@H]4CCCN4C#N)no3)cnn2)ccn1` [Example 204, (S)-4-(5-(3-(1-Cyanopyrrolidin-2-yl)-1,2,4-oxadiazol-5-yl)pyridazin-3-yl)picolinonitrile], 0.1 to 1 µM.

In the case of `N#Cc1cccc(-c2cc(C3CCN(C#N)C3)[nH]n2)c1` (centres unmarked) [Example 1, 3-(3-(3-Cyanophenyl)-1H-pyrazol-5-yl)pyrrolidine-1-carbonitrile], the IC50 fell in the range of 0.1 to 1 µM.
